Experimental data taken from patent US11793781B2, “Autoimmune disorder treatment using RXR agonists” (Io Therapeutics, Inc., priority 2011, dated 2023).

Assays:
PPAR/RXR = experiment: Permissive RXR heterodimer transactivation; assay type: cell-based; conditions: appropriate receptor and reporter constructs
Description: (§1) This difference represents >2,000-fold selectivity for RXRs over RARs in functional transactivation assays. […] FIG. 4. […] In this regard, RXR agonist 194204 is distinct from other RXR agonists.

LXR/RXR = experiment: Permissive RXR heterodimer transactivation; assay type: cell-based; conditions: appropriate receptor and reporter constructs
Description: as §1

[1] = tested on: experimental autoimmune encephalomyelitis (EAE); experiment: EAE in SJL mice (PLP peptide); assay type: in vivo
Method: To determine whether a RXR agonist can attenuate multiple sclerosis, SJL mice were immunized to induce EAE by s.c. injection at the base of their spine with 200 uL of adjuvant containing 200 ug proteolipid proteins (139-151) (PLP peptide; Peptides International, Louisville, Ky.) and 400 ug of non-viable M. tuberculosis H37 desiccate emulsified in a mixture of incomplete Freund's adjuvant and PBS. Mice were also given 150 ng of pertussis toxin in PBS i.p. on the same day as PLP emulsion injection and 2 days later. […] Mice were scored using the scale described in Example 6.

[2] = tested on: CNS infiltrating leukocytes; experiment: CNS infiltrating cells in EAE B6 mice (FACS); assay type: in vivo, C57BL/6 (B6) mice; conditions: day 20, versus vehicle control, FIG. 6
Method: To determine whether a RXR agonist can reduce central nervous system (CNS) infiltrating cells, C57BL/6 (B6) mice were treated as described in Example 6. On day 20 after immunization, mice were sacrificed and perfused with phosphate buffered saline (PBS). Brain and spinal cord tissue was isolated, digested with DNase and Liberase DL (Roche Diagnostics, Indianapolis, Ind.) for 30 minutes, and homogenized through 70 micron nylon mesh filters. Resulting cells were placed over a Percoll gradient to remove myelin. The remaining cells (microglia and CNS infiltrating cells) were counted, stained for molecules of interest, and run on a flow cytometer. Based on the frequencies obtained by FACS of these cell populations, total cell numbers of CNS infiltrating leukocytes expressing CD45, including CD4^+ T cells and CD11c^+ CD11b^+ myeloid dendritic cells (DC), were calculated.

RXRγ = biological target: T1, RXRγ (Homo sapiens, UniProt P48443); experiment: RXR homodimer transactivation assay in CV-1 cells (RXRE-tk-Luc); assay type: cell-based
T1 construct: an expression construct including a full length RXRα, RXRβ, or RXRγ; expressed in transfected cells; host or cells: CV-1 cells
T1 sequence (P48443 1-463): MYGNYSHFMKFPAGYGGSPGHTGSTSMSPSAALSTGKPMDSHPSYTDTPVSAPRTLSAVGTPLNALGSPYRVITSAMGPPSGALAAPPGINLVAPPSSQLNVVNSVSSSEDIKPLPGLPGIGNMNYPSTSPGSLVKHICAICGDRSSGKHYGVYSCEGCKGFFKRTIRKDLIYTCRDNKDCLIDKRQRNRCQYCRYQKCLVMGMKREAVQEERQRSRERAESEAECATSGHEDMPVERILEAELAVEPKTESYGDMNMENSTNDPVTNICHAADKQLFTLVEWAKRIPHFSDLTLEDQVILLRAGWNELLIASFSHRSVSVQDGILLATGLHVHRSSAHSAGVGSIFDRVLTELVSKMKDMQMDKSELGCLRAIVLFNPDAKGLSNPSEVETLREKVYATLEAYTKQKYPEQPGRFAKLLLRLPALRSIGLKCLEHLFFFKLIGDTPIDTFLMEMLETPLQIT
Method: To determine whether a RXR agonist can mediate its effects via an RXRα receptor homodimers, RXRβ receptor homodimers, RXRγ receptor homodimers, or any combination thereof, or the corresponding RAR/RXR heterodimers, receptor-mediated transactivation assays were performed. […] Data are mean values±SE from five independent experiments.

[3] = tested on: Naive CD4+ CD25− FoxP3− cells; experiment: Treg cell differentiation conditions: Foxp3 and α4β7 expression; assay type: cell-based, mouse
Method: To determine whether a RXR agonist can induce Treg cell differentiation, the ability of an RXR agonist to promote Treg cell differentiation under Treg cell differentiation conditions was assessed by monitoring Foxp3 and α4β7 expression. Naive CD4^+ CD25^− FoxP3^− cells were purified from a Foxp3-GFP mouse using flow cytometry by sorting and isolating based upon a GFP^− phenotype. These cells were then cultured under Treg cell differentiation conditions by treating the cells with αCD3 and αCD28 polyclonal antibodies in the presence of IL-2 and TGF-β. […] FIG. 1A. […] FIG. 1B.

RXRα = biological target: T2, RXRα (Homo sapiens, UniProt P19793); experiment: RXR homodimer transactivation assay in CV-1 cells (RXRE-tk-Luc); assay type: cell-based; conditions: 20 hours, luciferase
T2 sequence (P19793 1-462): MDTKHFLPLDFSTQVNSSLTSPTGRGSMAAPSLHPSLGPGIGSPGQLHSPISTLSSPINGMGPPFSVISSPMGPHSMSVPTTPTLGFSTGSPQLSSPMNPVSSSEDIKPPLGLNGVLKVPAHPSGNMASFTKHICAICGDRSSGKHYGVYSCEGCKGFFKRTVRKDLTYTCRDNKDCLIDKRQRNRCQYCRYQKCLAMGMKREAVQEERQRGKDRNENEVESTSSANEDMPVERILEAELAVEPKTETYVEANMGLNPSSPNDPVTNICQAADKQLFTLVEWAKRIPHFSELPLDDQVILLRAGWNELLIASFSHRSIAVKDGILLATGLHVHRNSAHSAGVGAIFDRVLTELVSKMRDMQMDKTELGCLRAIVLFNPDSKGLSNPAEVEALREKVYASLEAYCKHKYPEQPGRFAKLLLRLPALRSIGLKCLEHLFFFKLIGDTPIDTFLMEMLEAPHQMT
Description: For transactivation assays assessing RXR homodimer signaling, CV-1 cells were transfected with 1) an expression construct including a full length RXRα, RXRβ, or RXRγ; and 2) a rCRBPII/RXRE-tk-Luc reporter construct that included RXR homodimer-specific RXRE/DR1 responsive element linked to a luciferase gene. For transactivation assays assessing RAR/RXR heterodimer signaling, CV-1 cells were transfected with 1) an expression construct comprising a fusion protein including an estrogen receptor (ER) DNA binding domain linked to the ligand binding domain of RARα, RARβ, or RARγ and 2) a ERE-tk-Luc reporter construct that included an estrogen receptor responsive element linked to a luciferase gene. […] Data are mean values±SE from five independent experiments.

[4] = tested on: experimental autoimmune encephalomyelitis (EAE); experiment: EAE in C57BL/6 (B6) mice (MOG peptide); assay type: in vivo; conditions: 50 ug i.p. every other day from day 7, FIG. 5
Method: Mice were also given 200 ng of pertussis toxin in PBS administered by inter-peritoneal (i.p.) injection on the same day as MOG emulsion injection (day 0) and 2 days later (day 2). […] Mice were scored using the following scale: 0—Mice have no disease, 1—Mice have distal limp tail or rear leg weakness (paresis), 1.5—Mice have distal limp tail and rear leg weakness, 2—Mice have complete limp tail and rear leg weakness, 2.5—Mice have complete limp tail and weakness in both rear legs, 3—Mice have complete limp tail and paralysis in both rear legs, 3.5—Mice have complete limp tail, paralysis in both rear legs, and forelimb weakness. Mice receiving a score of 3.5 were immediately euthanized.

[5] = tested on: Naive CD4+ CD25− FoxP3− cells; experiment: Th17 cell differentiation conditions: Foxp3 and IL-17A expression; assay type: cell-based, mouse; conditions: 0, 1, 10, 100 nM, as concentration increased
Method: To determine whether a RXR agonist can regulate T cell differentiation, the ability of an RXR agonist to promote Treg cell differentiation and inhibit Th17 cell differentiation under Th17 cell differentiation conditions was assessed by monitoring Foxp3 and IL-17A expression. Naive CD4^+ CD25^− FoxP3^− cells were purified from a Foxp3-GFP mouse using flow cytometry by sorting and isolating based upon a GFP^− phenotype. […] See, e.g., Elias, et al., Retinoic Acid Inhibits Th17 Polarization and Enhances FoxP3 Expression through a Stat-3/Stat-5 Independent Pathway, Blood 111(3): […] (2008). […] FIG. 2A. […] FIG. 2B.

RXRs and RARs = experiment: Functional transactivation assays, RXRs compared with RARs; assay type: cell-based
Method: To determine whether a RXR agonist can mediate its effects via an RXRα receptor homodimers, RXRβ receptor homodimers, RXRγ receptor homodimers, or any combination thereof, or the corresponding RAR/RXR heterodimers, receptor-mediated transactivation assays were performed. For transactivation assays assessing RXR homodimer signaling, CV-1 cells were transfected with 1) an expression construct including a full length RXRα, RXRβ, or RXRγ; and 2) a rCRBPII/RXRE-tk-Luc reporter construct that included RXR homodimer-specific RXRE/DR1 responsive element linked to a luciferase gene. For transactivation assays assessing RAR/RXR heterodimer signaling, CV-1 cells were transfected with 1) an expression construct comprising a fusion protein including an estrogen receptor (ER) DNA binding domain linked to the ligand binding domain of RARα, RARβ, or RARγ and 2) a ERE-tk-Luc reporter construct that included an estrogen receptor responsive element linked to a luciferase gene. The ER-RAR fusion proteins provided an accurate readout of only the transfected ER-RAR. […] Data are mean values±SE from five independent experiments.

FXR/RXR = experiment: Permissive RXR heterodimer transactivation; assay type: cell-based; conditions: appropriate receptor and reporter constructs
[6] = 50 ug i.p. every other day from day 7, FIG. 7

Question: What does the source list for CC(/C=C/[C@@H]1C[C@]1(C)c1ccc2c(c1)C(C)(C)CCC2(C)C)=C\C(=O)O [RXR agonist 194204, 3,7-dimethyl-6(S),7(S)-methano,7-[1,1,4,4-tetramethyl-1,2,3,4-tetrahydronaphth-7-yl]2(E),4(E) heptadienoic acid]?
Answer: transactivation of permissive RXR heterodimer PPAR/RXR (PPAR/RXR): not to transactivate; transactivation of permissive RXR heterodimer LXR/RXR (LXR/RXR): not to transactivate; symptoms of EAE (disease severity score) [1, 6]: significantly reduces the symptoms of EAE; time course of efficacy [1, 6]: observed after the second administration (day 8) and maintained throughout the course of the study (day 14); Disease Incidence ([1]; 50 ug i.p. every other day from day 7, mice affected/group): 4/6; Death from Disease ([1]; 50 ug i.p. every other day from day 7, mice/group): 0/6; Mean Maximum Score ([1]; 50 ug i.p. every other day from day 7, scale 0-3.5): 1.5 ± 1.4; infiltration of CD4+ cells into the CNS [2]: significant reduction; infiltration of CD11c+ CD11b+ cells (myeloid DC) into the CNS [2]: significant reduction; Efficacy (% of 1 μM 194204) RXRγ (RXRγ): 0.09 ± 0.01 100 % of 1 μM 194204; Foxp3+ T cells induced ([3]; Treg conditions (αCD3, αCD28, IL-2, TGF-β), concentrations of 1 nM or higher, FIG. 1A): ~100%; α4β7 expression ([3]; Treg conditions, 0.1, 1.0, 10 nM, FIG. 1B): induced expression of α4β7; Efficacy (% of 1 μM 194204) RXRα (RXRα): 100 % of 1 μM 194204; symptoms of EAE (disease severity score) [4]: significantly reduces the symptoms of EAE; time course of efficacy [4]: observed after the first administration (day 7) and maintained throughout the course of the study (day 20); Foxp3 expression ([5]; FIG. 2A): Foxp3 expression increased; IL-17A expression ([5]; FIG. 2B): IL-17A expression decreased; more potent in activating RXR receptors rather than RAR receptors (RXRs and RARs; FIG. 4): > 1,000 fold; activity at RARs (RXRs and RARs; at ≥1 μM): minimal activity; transactivation of permissive RXR heterodimer FXR/RXR (FXR/RXR): not to transactivate
